Test results as given in US7977364B2, “Indazoles, benzisoxazoles and benzisothiazoles and their use as estrogenic agents” (Laboratoire Thermamex, priority 2004, dated 2011).
Where two headings read alike, the source gives them in different places. Each block holds one compound with its values, some of them ahead of it.

Experiments:
Prepubescent female rats = experiment: Estrogenic / uterotrophic activity in vivo (uterus wet weight); set-up: species or system rat; conditions: Table 4, orally 3 mg/rat/day for 3 days; for change in vivo at 3 mg: Rattus norvegicus, po, 72 h, read-out: % stimulation vs vehicle (uterus weight)
Description: Prepubescent female rats were orally treated at 3 mg/rat/day for 3 days. On the day following the last treatment, uteri were removed and wet weights were recorded.
The results are expressed as % of stimulation of uterus weight in comparison with vehicles. […]
Prepubescent female rats were orally treated with 0.3; 1; 3 or 10 mg/rat/day for 3 days. On the day following the last treatment, uteri were removed and wet weights were recorded.

[1] = biological target: purified full-length recombinant human ERβ (Homo sapiens, UniProt Q92731); experiment: Estrogen receptor β competitive radiometric binding assay ([3H]-E2); conditions: for selectivity for the human recombinant estrogen receptor β: in words; for RBA (%) Mean ± S.E.M, ER β: ratio of IC50s of E2 and competitor, E2 set at 100%; for R (IC50s) αβ: ratio of the IC50 for ERα to the IC50 for ERβ
purified full-length recombinant human ERβ, sequence (Q92731 whole entry): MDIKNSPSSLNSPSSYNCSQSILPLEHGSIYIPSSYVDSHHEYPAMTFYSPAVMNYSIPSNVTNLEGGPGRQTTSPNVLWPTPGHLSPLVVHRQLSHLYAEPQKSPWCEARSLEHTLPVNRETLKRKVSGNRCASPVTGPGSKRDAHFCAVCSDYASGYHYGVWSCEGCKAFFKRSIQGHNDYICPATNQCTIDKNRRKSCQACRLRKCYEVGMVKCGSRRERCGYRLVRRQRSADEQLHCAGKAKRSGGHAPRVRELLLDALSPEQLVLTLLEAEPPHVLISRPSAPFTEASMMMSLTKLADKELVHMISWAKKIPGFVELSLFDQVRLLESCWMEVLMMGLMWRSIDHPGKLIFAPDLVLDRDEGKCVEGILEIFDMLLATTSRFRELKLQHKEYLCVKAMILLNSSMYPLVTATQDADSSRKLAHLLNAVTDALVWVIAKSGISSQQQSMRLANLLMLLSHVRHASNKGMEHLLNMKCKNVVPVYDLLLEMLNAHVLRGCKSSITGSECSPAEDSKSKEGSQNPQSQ
Description: (§1) Relative binding affinities (RBA) were determined by competitive radiometric binding assays, using purified full-length recombinant human ERα and ERβ (PanVera, Madison, Wis.). […] After shaking for a few seconds and centrifugation at 1500 g and 4° C. for 10 minutes, 150 μl/well of Optiphase ‘Super Mix’ scintillation liquid was mixed with 50 μl of supernatant of each sample and the radioactivity was measured in a MicroBeta counter (Wallac, Turku, Finland). Data were evaluated by a sigmoidal dose-response curve (Prism, GraphPad Software Inc.) to estimate the concentration of competitor at half-maximal specific binding (IC50). […] The selectivity for ERα and ERβ was obtained from the ratio R of the IC50 for ERα to the IC50 for ERβ for each test compound.

[2] = biological target: T1, purified full-length recombinant human ERα (Homo sapiens, UniProt P03372); experiment: Estrogen receptor α competitive radiometric binding assay ([3H]-E2); conditions: for RBA (%) Mean ± S.E.M, ER α: ratio of IC50s of E2 and competitor, E2 set at 100%
T1 sequence (P03372 1-595): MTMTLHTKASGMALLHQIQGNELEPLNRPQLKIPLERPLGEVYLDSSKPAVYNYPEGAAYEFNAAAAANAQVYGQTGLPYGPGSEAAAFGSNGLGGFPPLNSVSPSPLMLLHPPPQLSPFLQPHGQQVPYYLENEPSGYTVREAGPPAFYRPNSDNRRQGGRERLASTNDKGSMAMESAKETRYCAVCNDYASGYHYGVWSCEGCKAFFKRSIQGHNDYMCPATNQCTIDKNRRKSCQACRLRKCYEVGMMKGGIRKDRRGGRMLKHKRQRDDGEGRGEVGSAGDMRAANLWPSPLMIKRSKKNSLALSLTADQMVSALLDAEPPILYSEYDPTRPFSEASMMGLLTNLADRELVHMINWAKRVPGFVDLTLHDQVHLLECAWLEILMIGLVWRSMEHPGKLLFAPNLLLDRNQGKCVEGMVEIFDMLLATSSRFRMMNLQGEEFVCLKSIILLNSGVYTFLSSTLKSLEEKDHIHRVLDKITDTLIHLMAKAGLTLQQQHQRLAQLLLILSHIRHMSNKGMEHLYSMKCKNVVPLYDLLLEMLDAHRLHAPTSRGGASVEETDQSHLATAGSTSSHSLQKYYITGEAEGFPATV
Description: as §1

[3] = system: human endometrial adenocarcinoma Ishikawa cells; experiment: Estrogenic and anti-estrogenic activities in vitro: induction of alkaline phosphatase (APase) activity; type: cell-based; conditions: for EC50: compound alone, four days, ND = not detected, read-out: Estrogenic activity EC50 (nM) ± S.E.M; for estrogenic effect in alkaline phosphatase activity in the Ishikawa cell model: in words
Description: The estrogenic and anti-estrogenic potentials of new compounds were evaluated using the induction of alkaline phosphatase (APase) activity, an estrogen specific response in human endometrial adenocarcinoma Ishikawa cells (Botella J., J Steroid Biochem Molec Biol, 1995, 55: 77-84; Littlefield et al., Endocrinology, 1990, 127: 2757-2762).
Ishikawa cells were routinely grown as monolayers in Dulbecco's Modified Eagle's medium (DMEM) containing 4 mM Glutamax I and supplemented with 10% of decomplemented fetal calf serum (dFCS) and antibiotics. They were maintained in a humidified atmosphere of 5% CO2 and 95% air, at 37±0.1° C. Stocks were performed once a week to maintain continuous exponential growth.
For studies, Ishikawa cells were plated into 96-well microplates. The next day, the medium was changed to a phenol red-free DMEM containing 5% dFCS stripped of endogenous estrogens by dextran coated charcoal treatment.
At the end of the incubation period, APase activity was assayed by a method involving the hydrolysis of p-nitrophenyl phosphate to p-nitrophenol at pH 9.8 and spectrophotometric determination of the product at 405 nm.
In brief, the microplates were first rinsed twice with cold phosphate buffered solution and then placed at −80° C. for at least 15 minutes. After thawing at room temperature for 5-10 minutes, the plates were put on ice and 50 μl ice-cold solution containing 5 mM p-nitrophenyl phosphate was added to each well. The plates were warmed to room temperature to allow for the development of the enzymatic reaction (t0). After a 15 to 60 minute incubation period, the intensity of the yellow color generated by the production of p-nitrophenol was measured into each well at 405 nm using a microplate reader (Wallac, model 1420 Victor^2). […] Sigmoidal dose-response curves were plotted and EC50 (estrogenic effect) and IC50 (anti-estrogenic effect) values were calculated for each compound.

[4] = system: human breast cancer cell line MCF-7; experiment: Proliferative activity in vitro (ATP luminescence, 6 days); type: cell-based; conditions: for EC50: MCF-7, six days, read-out: Cell proliferation EC50 (nM) ± S.E.M; for activity at 1 µM: read-out: Effect at 10^−6 M (% of control); for activity at 0.01 µM: read-out: Effect at 10^−8 M (% of control)
Description: The proliferative effect of the compounds of the invention was evaluated on human breast cancer cell line MCF-7 by measuring the number of viable cells after 6 days of treatment.
MCF-7 cells were routinely cultured as monolayers in Dulbecco's modified Eagle's medium (DMEM) containing 4 mM Glutamax and 4.5 g/l glucose and supplemented with 5% (v/v) decomplemented fetal calf serum (dFCS) and antibiotics.
Cells were plated at 2.10^6 cells/75 cm^2 flasks and incubated at 37° C. in a humidified atmosphere containing 5% CO2. They were passaged once weekly to maintain continuous exponential growth. Forty eight hours before the start of an experiment, near-confluent cells were changed to a phenol red free DMEM containing 5% steroid-stripped dFCS by dextran coated charcoal treatment (DCC-DMEM). On the day of the experiment, cells were harvested by brief exposure to trypsin and plated in DCC-DMEM in 96-well microplates at a density of 4.10^3 cells/well. The next day, the medium was renewed and test compounds, diluted appropriately in estrogen-free DMEM, were added and incubated for six days. […] At the end of the incubation period, cell proliferation was evaluated by quantitation of the cellular ATP content which signals the presence of metabolically active cells.
The assay, based on the ATP-dependent luciferase reaction, enables generation of a luminescent signal proportional to the amount of ATP present. As there is a linear relationship between the amount of ATP and the number of viable cells present in culture, the luminescent signal allowed to precisely evaluate cell proliferation (Crouch, S. P. M. et al. J. Immunol. Meth., 1993, 160, 81; Kangas, L. et al. Med. Biol. 1984, 62, 338; Petty, R. D. et al. J. Biolum. Chemilum. 1995, 10, 29).
In brief, the microplates were inverted to discard the culture medium and 100 μl of fresh medium was added into each well. The microplates were equilibrated at room temperature for approximately 30 minutes. 100 μl of luciferase reagent was added into each well and contents were mixed for 2 minutes to induce cell lysis. The plates were incubated at room temperature for 10 minutes to stabilize luminescence signal.
Luminescence was recorded using a microplate reader (Wallac, model 1420 Victor^2) and results were expressed as percentage of the control luminescence. Sigmoidal dose-response curves were plotted and EC50 values were calculated for each compound in order to evaluate their proliferative potency.

[5] = Homo sapiens, MCF7, 144 h, MCF-7, 10^−6 M, six days
[6] = Homo sapiens, MCF7, 144 h, MCF-7, 10^−8 M, six days

melting point: 120 °C
Compound: Cl.Oc1ccc2c(C3CCCC3)nn(CCN3CCCCC3)c2c1

melting point: 95 °C
Compound: Cl.Oc1ccc2c(C3CCCCCC3)n[nH]c2c1

melting point: 255 °C
Compound: COc1ccc(C2=COc3cc(O)cc4[nH]nc2c34)cc1.Cl

melting point: 111 °C
Compound: Cl.Oc1ccc(C2=COc3cc(O)cc4[nH]nc2c34)cc1

selectivity for the human recombinant estrogen receptor β [1]: marked selectivity
RBA (%) Mean ± S.E.M, ER β [1]: 0.9 ± 0.1%
R (IC50s) αβ [1]: 10.8
IC50 ([1]; read-out: IC50 (nM) Mean ± S.E.M, ER β, 2 nM [3H]-E2, 4° C., 18-20 hours): 248 ± 48.7 nM
RBA (%) Mean ± S.E.M, ER α [2]: 0.1 ± 0.02%
IC50 ([2]; read-out: IC50 (nM) Mean ± S.E.M, ER α, 2 nM [3H]-E2, 4° C., 18-20 hours): 2690 ± 593 nM
EC50 [3]: 374 ± 43 nM
EC50 [4]: 58.2 ± 15 nM
Compound: 1-(aminosulfonyl)-3-cyclohexyl-1H-indazol-6-yl-sulfamate [Ex 35]
% stimulation vs vehicle (uterus weight) (Prepubescent female rats): 38%
estrogenic effect in alkaline phosphatase activity in the Ishikawa cell model [3]: weak estrogenic effect
Effect at 10^−6 M (% of control) ([4]; MCF-7, 10^−6 M, six days): 162.6 % of control
Effect at 10^−8 M (% of control) ([4]; MCF-7, 10^−8 M, six days): 94.4 % of control

Compound: N#CC(Cc1ccc(O)cc1)c1ccc(O)cc1 (stereo not shown) [DPN, 2,3-bis-(4-hydroxyphenyl)propionitrile, reference compound]
change in vivo at 3 mg (Prepubescent female rats): 358%

IC50 [1]: 36.2 ± 18.7 nM
selectivity for the human recombinant estrogen receptor β [1]: marked selectivity
RBA (%) Mean ± S.E.M, ER β [1]: 17.7 ± 5.1%
R (IC50s) αβ [1]: 3.3
IC50 [2]: 119 ± 45.2 nM
RBA (%) Mean ± S.E.M, ER α [2]: 3.1 ± 0.8%
EC50 ([3]; Homo sapiens, Ishikawa, 96 h): 30.8 ± 0.5 nM
EC50 ([4]; Homo sapiens, MCF7, 144 h): 3.7 ± 0.7 nM
Compound: Cl.Oc1ccc2c(C34CC5CC(CC(C5)C3)C4)n[nH]c2c1 [Ex 31, 3-(1-adamantyl)-1H-indazol-6-ol, hydrochloride]
change in vivo at 3 mg (Prepubescent female rats): 468%
estrogenic effect in alkaline phosphatase activity in the Ishikawa cell model [3]: weak estrogenic effect
activity at 1 µM [4, 5]: 146%
activity at 0.01 µM [4, 6]: 139%

IC50 [1]: 14.4 ± 5.3 nM
RBA (%) Mean ± S.E.M, ER β [1]: 35.9 ± 14.0%
R (IC50s) αβ [1]: 9.7
melting point: 201 °C
IC50 [2]: 139 ± 33.9 nM
RBA (%) Mean ± S.E.M, ER α [2]: 2.4 ± 0.7%
EC50 ([4]; Homo sapiens, MCF7, 144 h): 635 ± 285 nM
Compound: N#CC(Cc1ccc(O)c(F)c1)c1noc2cc(O)ccc12 (stereo not shown) [Ex 81, 2-(6-hydroxy-1,2-benzisoxazol-3-yl)-3-(3-fluoro-4-hydroxyphenyl)-propanenitrile]
change in vivo at 3 mg (Prepubescent female rats): 49%
activity at 1 µM [4, 5]: 117%
activity at 0.01 µM [4, 6]: 86.8%

melting point: 205 °C
Compound: Cn1nc(C2CCCCC2)c2ccc(O)cc21 [Example 25, 3-cyclohexyl-1-methyl-1H-indazol-6-ol]

melting point: 178 °C
Compound: Oc1ccc(-n2nc(C3CCCC3)c3ccc(O)cc32)cc1 [Example 26, 3-cyclopentyl-1-(4-hydroxyphenyl)-1H-indazol-6-ol]

melting point: 147 °C
Compound: Oc1ccc2c(C3CCCC3)nn(Cc3ccc(Br)cc3)c2c1 [Example 28, 1-(4-bromobenzyl)-3-cyclopentyl-1H-indazol-6-ol]

melting point: 154 °C
Compound: Oc1ccc2c(C3CCCCC3)nn(Cc3ccccc3)c2c1 [Example 29, 1-benzyl-3-cyclohexyl-1H-indazol-6-ol]

melting point: 188 °C
Compound: Cn1nc(C2CCCCC2)c2ccc(S(N)(=O)=O)cc21 [Example 36, 3-cyclohexyl-1-methyl-1H-indazole-6-sulfonamide]

melting point: 155 °C
Compound: NS(=O)(=O)n1nc(C2CCCCCC2)c2ccc(O)cc21 [Example 39, 3-cycloheptyl-6-hydroxy-1H-indazole-1-sulfonamide]

melting point: 80 °C
Compound: c1ccc(COc2ccc3c(C4CCCCCC4)noc3c2)cc1 [Example 63, 6-benzyloxy-3-cycloheptyl-1,2-benzisoxazole]

melting point: 215 °C
Compound: Oc1ccc2c(C34CC5CC(CC(C5)C3)C4)noc2c1 [Example 64, 3-(1-adamantyl)-1,2-benzisoxazol-6-ol]

melting point: 87 °C
Compound: NS(=O)(=O)Oc1ccc2c(C34CC5CC(CC(C5)C3)C4)noc2c1 [Example 74, 3-(1-adamantyl)-1,2-benzisoxazol-6-yl sulfamate]

melting point: 82 °C
Compound: NS(=O)(=O)Oc1ccc2c(C3CCCCCC3)noc2c1 [Example 75, 3-cycloheptyl-1,2-benzisoxazol-6-yl sulfamate]

melting point: 145 °C
Compound: NS(=O)(=O)Oc1ccc2c(C3CCCCC3)noc2c1 [Example 76, 3-cyclohexyl-1,2-benzisoxazol-6-yl sulfamate]

melting point: 131 °C
Compound: COc1ccc2c(C(C#N)Cc3ccc(O)cc3C)noc2c1 (stereo not shown) [Example 82, 2-(6-methoxy-1,2-benzisoxazol-3-yl)-3-(4-hydroxy-2-methylphenyl)-propanenitrile]

melting point: 130 °C
Compound: Oc1ccc2c(C3CCCC3)nsc2c1 [Example 94, 3-cyclopentyl-1,2-benzisothiazol-6-ol]

melting point: 132 °C
Compound: NS(=O)(=O)Oc1ccc2c(C3CCCC3)nsc2c1 [Example 96, 3-cyclopentyl-1,2-benzisothiazol-6-yl sulfamate]

Compound: CCCc1c(-c2ccc(O)cc2)nn(-c2ccc(O)cc2)c1-c1ccc(O)cc1 [PPT, 1,3,5-tris-(4-hydroxyphenyl)-4-propyl-1H-pyrazole, reference compound]
change in vivo at 3 mg (Prepubescent female rats): 96%

Compound: CC/C(=C(\c1ccccc1)c1ccc(OCCN(C)C)cc1)c1ccccc1 [TAM, tamoxifen, reference compound]
change in vivo at 3 mg (Prepubescent female rats): 206%
